This data set is described as follows: Solubility in toluene, precipitate check by tyndall effect. The format is physicochemical. As to conditions: toluene 100 ml, left 30 minutes at room temperature (25° C.), dissolved amount measured. The method, then:
In addition, Compound BD12, Compound BD24, Compound BD30, Compound BD38 and Compound C used in Example 1 to Example 4 and Comparative Example 1 were each introduced to a solvent (toluene 100 ml), and then left unattended for 30 minutes at room temperature (25° C.). After that, laser was passed through the solution to determine whether precipitates were formed through a […] effect, and the dissolved amount was measured.

The compound `CC(C)c1ccc([Si](c2ccc(C(C)C)cc2)(c2ccc(C(C)C)cc2)c2ccc(N(c3ccc(-c4cc5c6ccccc6c(-c6ccc(N(c7ccc([Si](c8ccc(C(C)C)cc8)(c8ccc(C(C)C)cc8)c8ccc(C(C)C)cc8)cc7)c7cccc(-c8cccc([Si](c9ccc(C(C)C)cc9)(c9ccc(C(C)C)cc9)c9ccc(C(C)C)cc9)c8)c7)cc6)cc5c5ccccc45)cc3)c3cccc(-c4cccc([Si](c5ccc(C(C)C)cc5)(c5ccc(C(C)C)cc5)c5ccc(C(C)C)cc5)c4)c3)cc2)cc1` [BD38] came in with a Solubility of 15 wt %.

With `CC(C)c1ccc([Si](c2ccc(C(C)C)cc2)(c2ccc(C(C)C)cc2)c2ccc(N(c3cccc(-c4cccc([Si](c5ccc(C(C)C)cc5)(c5ccc(C(C)C)cc5)c5ccc(C(C)C)cc5)c4)c3)c3cc4c5ccccc5c(N(c5ccc([Si](c6ccc(C(C)C)cc6)(c6ccc(C(C)C)cc6)c6ccc(C(C)C)cc6)cc5)c5cccc(-c6cccc([Si](c7ccc(C(C)C)cc7)(c7ccc(C(C)C)cc7)c7ccc(C(C)C)cc7)c6)c5)cc4c4ccccc34)cc2)cc1` [BD30], the Solubility is given as 15 wt %.

For the compound `c1ccc([Si](c2ccccc2)(c2ccccc2)c2cccc(-c3ccccc3N(c3cccc([Si](c4ccccc4)(c4ccccc4)c4ccccc4)c3)c3cc4c5ccccc5c(N(c5cccc([Si](c6ccccc6)(c6ccccc6)c6ccccc6)c5)c5ccccc5-c5cccc([Si](c6ccccc6)(c6ccccc6)c6ccccc6)c5)cc4c4ccccc34)c2)cc1` [BD12], the Solubility was found to be 10 wt %.

Consider `c1ccc(-c2ccc(N(c3ccccc3)c3cc4c5ccccc5c(N(c5ccccc5)c5ccc(-c6ccccc6)cc5)cc4c4ccccc34)cc2)cc1` [Compound C, reference compound], for which the Solubility is given as 0.1 wt %.

As to `c1ccc([Si](c2ccccc2)(c2ccccc2)c2cccc(-c3ccccc3N(c3ccc(-c4cc5c6ccccc6c(-c6ccc(N(c7cccc([Si](c8ccccc8)(c8ccccc8)c8ccccc8)c7)c7ccccc7-c7cccc([Si](c8ccccc8)(c8ccccc8)c8ccccc8)c7)cc6)cc5c5ccccc45)cc3)c3cccc([Si](c4ccccc4)(c4ccccc4)c4ccccc4)c3)c2)cc1` [BD24], the Solubility came out at 10 wt %.

For the origin of these results see patent US11299503B2, “Compound, coating composition comprising the same, organic light emitting device using the same and method for manufacturing the same” (LG Chem, Ltd., priority 2018, dated 2022).
